Source: PubChem BioAssay (NCI)
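Cultured in 96-well plates, cells were exposed to test compound for 48 hours across five concentrations. GI50 = concentration required for 50% inhibition of growth. TGI is the concentration that stops growth completely.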 Where a SMILES comes first, the peptide text is derived from it. Bridges are numbered along the chain shown (N, C = ends). Roman numbers before positions name the chains, in order. [ ]: non-standard residue; d: D form. The star is where a group is joined. Quinoxaline2carbonyl = O=C(c1cnc2ccccc2n1)*; NMeV = CN[CH](C(=O)O)C(C)C; NMeC = CN[CH](CS)C(=O)O

How the values were obtained:
Test in all cases: NCI tumour cell line growth inhibition, 48 h
SK-MEL-2 melanoma = test system: SK-MEL-2 melanoma
NCI-H460 lung = test system: NCI-H460 lung
K-562 leukemia = test system: K-562 leukemia
HCT-116 colon = test system: HCT-116 colon
SK-MEL-28 melanoma = test system: SK-MEL-28 melanoma
HT29 colon = test system: HT29 colon
HCT-15 colon = test system: HCT-15 colon
OVCAR-4 ovarian = test system: OVCAR-4 ovarian
CCRF-CEM leukemia = test system: CCRF-CEM leukemia
HOP-92 NSCLC = test system: HOP-92 NSCLC

SMILES | TGI (SK-MEL-2 melanoma) [µM] | TGI (NCI-H460 lung) [µM] | TGI (K-562 leukemia) [µM] | TGI (HCT-116 colon) [µM] | TGI (SK-MEL-28 melanoma) [µM] | TGI (HT29 colon) [µM] | TGI (HCT-15 colon) [µM] | TGI (OVCAR-4 ovarian) [µM] | GI50 (SK-MEL-2 melanoma) [µM] | GI50 (NCI-H460 lung) [µM] | GI50 (K-562 leukemia) [µM] | GI50 (CCRF-CEM leukemia) [nM] | TGI (CCRF-CEM leukemia) [µM] | GI50 (HCT-116 colon) [µM] | GI50 (SK-MEL-28 melanoma) [µM] | GI50 (HT29 colon) [µM] | GI50 (HCT-15 colon) [µM] | GI50 (OVCAR-4 ovarian) [µM] | TGI (HOP-92 NSCLC) [µM] | GI50 (HOP-92 NSCLC) [µM]
Cn1c2ccccc2n2c(=O)c3c(c(C#N)c12)CCCC3 | > 100 | > 100 | > 100 | > 100 | > 100 | > 100 | > 100 | > 100 |  |  |  |  |  |  |  |  |  |  |  | 
CN(CCCCCl)P(=O)(OCCS(=O)(=O)CC(NC(=O)CCC(N)C(=O)O)C(=O)NC(C(=O)O)c1ccccc1)OCC1OC(n2cc(F)c(=O)[nH]c2=O)CC1O (stereo not given) | > 100 |  | > 100 | 39.9 | > 100 | > 100 | 46.6 | > 100 | > 49.7 | < 0.01 | 1.81 | < 37.6 | 33.1 | 0.161 | 15.2 | 2.68 | 1.32 | 8.27 |  | 
c1ccc2c3c([nH]c2c1)C1CCCN1CC3 (stereo not given) | > 10 | > 10 | > 10 |  | > 10 | > 10 | > 10 | > 10 |  |  |  |  | > 10 |  |  |  |  |  | > 10 | 
Cc1ccc(S(=O)OC2C3CC4CC(C3)CC2C4)cc1 (stereo not given) |  | > 100 | > 100 | > 100 | > 100 | > 100 | > 100 | > 100 |  |  |  |  |  |  |  |  |  |  | > 100 | 
O=P1(Oc2ccccc2)C(c2ccccc2)C(c2ccccc2)=NN1c1ccccc1 (stereo not given) | 31.6 | 60.9 | 66 | 31.3 | 64.2 | 33 | 44.7 | 86.3 |  |  |  |  | > 100 |  |  |  |  |  |  | 
CN(C)c1ccc(N=Nc2ccncc2)cc1 |  | > 100 | > 100 | > 100 | > 100 | > 100 | > 100 | > 100 |  |  |  |  | > 100 |  |  |  |  |  | 98.6 | 
O=C([CH-]C(=O)c1ccccc1)c1ccccc1.O=C([CH-]C(=O)c1ccccc1)c1ccccc1.[OH-].[OH-].[Ti+4] | > 100 | > 100 | > 100 | > 100 |  | > 100 | > 100 |  | 76.5 | 60.3 | 63.3 |  |  | 84.3 |  | > 100 | > 100 |  |  | 
CC1(C)CCC[C@]2(C)[C@@H](C=O)C(C=O)=CC[C@@H]12 | 39.7 |  |  | 83.4 | > 100 | 30 | 30.7 | 44.9 |  |  |  |  | 80.1 |  |  |  |  |  | 53 | 
N#Cc1ccc(N=Cc2c([O-])ccc3ccccc23)cc1.[C-]#[O+].[C-]#[O+].[Ir] |  |  | 28.9 | 26 | 22.1 | 42.3 |  | 17.7 |  |  | 8.99 | 1670 | 7.1 | 13.2 | 10.4 | 17.6 |  | 3.85 | 10.3 | 3.23
COc1ccc2c(c1OC)C(=O)OC2C1c2c(c([N+](=O)[O-])c3c(c2OC)OCO3)CCN1C (stereo not given) | > 100 | > 100 |  | > 100 | > 100 | > 100 | > 100 | > 100 | > 100 | > 100 |  |  |  | > 100 | > 100 | 28.7 | > 100 | > 100 |  | 
Cc1ccc(C2=Nc3ccccc3SC(c3cccc([N+](=O)[O-])c3)C2)cc1 (stereo not given) | > 100 | > 100 | 23.8 | 20.8 | > 100 | > 100 | > 100 | > 100 |  |  |  |  |  |  |  |  |  |  | 81.3 | 
Cc1cc2c(c(C(=O)O)c1C)-c1cccc(F)c1C2=O | > 100 | > 100 | > 100 |  | > 100 | > 100 | > 100 | > 100 |  |  |  |  | > 100 |  |  |  |  |  |  | 
CC1NC(=O)C(NC(=O)c2cnc3ccccc3n2)COC(=O)C(C(C)C)N(C)C(=O)C2CSSCC(C(=O)N(C)C(C(C)C)C(=O)OCC(NC(=O)c3cnc4ccccc4n3)C(=O)NC(C)C(=O)N2C)N(C)C1=O (stereo not given) (I: Quinoxaline2carbonyl-SA[NMeC][NMeV] / II: Quinoxaline2carbonyl-SA[NMeC][NMeV]; ester I:1-II:C, I:C-II:1; disulfide I:3-II:3; configuration not given here) | < 0.01 | 2.23 | > 51.5 | 14 | < 0.01 |  | 0.365 | 0.254 |  |  |  |  | 0.229 |  |  |  |  |  | > 35.7 | 
O=[N+]([O-])c1cc(S(=O)(=O)Oc2ccccc2)ccc1Cl | 26.1 | 4.06 | > 100 | 3.43 | 6.4 |  | 12.5 | 3.2 | 10.7 | 2.04 | 0.432 | 594 | 3.53 | 1.85 | 2.67 |  | 3.56 | 1.75 | 3.39 | 1.75
CCC1(O)C(=O)OCc2c1cc1n(c2=O)Cc2cc3cc(N)ccc3nc2-1 (stereo not given) | 0.826 | 0.189 | 31.3 |  | 41.8 |  | 3.55 | > 22 |  |  |  |  | < 0.01 |  | 0.493 |  |  |  |  | 
O=C(NC1CCCC1=O)c1ccccc1 (stereo not given) | > 100 | > 100 | > 100 | > 100 | > 100 | > 100 |  | > 100 |  |  |  |  | > 100 |  |  |  |  |  | > 100 | 
COC1O[C@@H]2C[C@H]3C(C)(C)CCC[C@]3(C)C3=CCCC1[C@@]32C (stereo not given in full) |  | > 100 | > 100 | > 100 | > 100 | > 100 | > 100 | > 100 |  | > 100 | > 100 | > 100000 | > 100 | > 100 | > 100 | > 100 | > 100 | > 100 | > 100 | > 100
CC(C)(C)CN1CCn2c(nc3c(N)nccc32)S1 | > 100 | 17.3 | 67.7 | 17.1 | 29.7 |  | 26.2 | 40.1 | 69.3 | 4.25 | 4.64 | 10200 | > 100 | 4.61 | 13.5 |  | 3.92 | 13.6 | > 100 | 96.5
